Article PMC11883961 (RSC Chemical Biology, 2025)

Experiments:
[1] = biological target: FKBP12-LgBiT and MAPRE1 (N183-Y268)-SmBiT in HEK293T cells (Homo sapiens, UniProt P62942+Q15691); assay: NanoBiT FKBP12-MAPRE1 recruitment experiments; format: cell-based
[2] = biological target: FKBP12 ligand pocket (FKBP12-LgBiT/MAPRE1-SmBiT in HEK293T cells) (Homo sapiens, UniProt P62942+Q15691); assay: NanoBiT FKBP ligand competition experiments; format: cell-based; details: 80 μM competitor; recruiters up to 20 μM
Chain of FKBP12 ligand pocket (FKBP12-LgBiT/MAPRE1-SmBiT in HEK293T cells) (P62942 whole entry): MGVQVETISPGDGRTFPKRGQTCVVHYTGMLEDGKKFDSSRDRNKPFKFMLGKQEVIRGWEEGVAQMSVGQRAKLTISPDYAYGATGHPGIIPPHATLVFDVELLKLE
Chain of FKBP12 ligand pocket (FKBP12-LgBiT/MAPRE1-SmBiT in HEK293T cells) (Q15691 183-268): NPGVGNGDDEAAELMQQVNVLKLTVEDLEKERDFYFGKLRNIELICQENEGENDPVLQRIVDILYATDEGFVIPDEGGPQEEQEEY

Chain of FKBP12-LgBiT and MAPRE1 (N183-Y268)-SmBiT in HEK293T cells (P62942 whole entry): as the sequence (P62942 whole entry) above
Chain of FKBP12-LgBiT and MAPRE1 (N183-Y268)-SmBiT in HEK293T cells (Q15691 183-268): as the sequence (Q15691 183-268) above

CO[C@H]1C[C@@H]2CC[C@@H](C)[C@@](O)(O2)C(=O)C(=O)N2CCCC[C@H]2C(=O)O[C@H]([C@H](C)C[C@@H]2CC[C@@H](O)[C@H](OC)C2)CC(=O)[C@H](C)/C=C(\C)[C@@H](O)[C@@H](OC)C(=O)[C@H](C)C[C@H](C)/C=C/C=C/C=C/1C [Rapamycin]
recruitment of MAPRE1 to FKBP12 in cells [1]: neither of which measurably recruits MAPRE1 to FKBP12
ability to outcompete glue recruiters for FKBP12 [2]: able to outcompete even the highest dose of all glue recruiters tested
